{"source": "patent US6458384B2", "about": "“Pharmaceutical with predetermined activity profile” (priority 2000, dated 2002)", "key": {"[1]": {"assay": "Release According to USP (USP Paddle, 50 rpm), 0.1 N HCl then phosphate buffer pH 6.8", "type": "physicochemical", "conditions": "0.1 N HCl 0-120 min, phosphate buffer pH 6.8 >120 min, 37° C.", "protocol": "The term “release profile” refers to the pattern of release of the respective pharmacologically active substance over time, that is, the amount released over time. This may be measured either in vivo, e.g. indirectly by measuring the blood concentration, or preferably ex vivo, e.g. by the USP paddle method that allows for determination of the dissolution rate of the substance. […] Samples are withdrawn for determination of the amount of substance released in intervals of e.g. 30 or 60 min an analysed, e.g. spectrophotometrically, for example at 272 nm for caffeine, and/or using HPLC methods. A preferred method is described in the examples that may be used in analogy for other pharmaceuticals according to the invention. Preferred methods for analyzing blood or plasma levels of compounds are also described in the examples—analogous methods can be used for different active substances and are known int the art or easily derivable from the art. Where not indicated otherwise, percentages or other relative indications of amounts are given on a weight by weight (w:w) basis. The dissolution rate determination using the USP paddle apparatus has already been described above. The attrition rate of tablet cores for subsequent film-coating is preferably determined under standard conditions in a friabilator. The rate of attrition, i.e. the friability, is calculated. […] The crushing strength of tablets is determined in a tablet hardness tester (N=10). [table] [table] [table]"}, "[2]": {"assay": "USP paddle test in phosphate buffer pH 6.8 of ethylcellulose-coated caffeine tablets", "type": "physicochemical", "protocol": "The term “release profile” refers to the pattern of release of the respective pharmacologically active substance over time, that is, the amount released over time. This may be measured either in vivo, e.g. indirectly by measuring the blood concentration, or preferably ex vivo, e.g. by the USP paddle method that allows for determination of the dissolution rate of the substance. For example, a USP paddle apparatus operating at 37° C. and 50 rpm ist used and the preparations are tested in (e.g. 900 ml) artificial intestinal fluid, e.g. phosphate buffer pH 6.8; artificial gastric juice, e.g. 0.1 N HCl; or water. Samples are withdrawn for determination of the amount of substance released in intervals of e.g. 30 or 60 min an analysed, e.g. spectrophotometrically, for example at 272 nm for caffeine, and/or using HPLC methods."}}, "data": [{"smiles": "Cn1c(=O)c2c(ncn2C)n(C)c1=O", "note": "[Caffeine]", "values": [{"measurement": "Accumulated rel, Time (min) 15", "setting": "[1]; Example 1 sachet formulation, 15 min", "result": 0.0, "unit": "%"}, {"measurement": "Accumulated rel, Time (min) 30", "setting": "[1]; Example 1 sachet formulation, 30 min", "result": 0.0, "unit": "%"}, {"measurement": "Accumulated rel, Time (min) 60", "setting": "[1]; Example 1 sachet formulation, 60 min", "result": 0.0, "unit": "%"}, {"measurement": "Accumulated rel, Time (min) 120", "setting": "[1]; Example 1 sachet formulation, 120 min", "result": 0.0, "unit": "%"}, {"measurement": "Accumulated rel, Time (min) 180", "setting": "[1]; Example 1 sachet formulation, 180 min", "result": 0.0, "unit": "%"}, {"measurement": "Accumulated rel, Time (min) 240", "setting": "[1]; Example 1 sachet formulation, 240 min", "result": 0.0, "unit": "%"}, {"measurement": "Accumulated rel, Time (min) 300", "setting": "[1]; Example 1 sachet formulation, 300 min", "result": 0.0, "unit": "%"}, {"measurement": "Accumulated rel, Time (min) 330", "setting": "[1]; Example 1 sachet formulation, 330 min", "result": 87.0, "unit": "%"}, {"measurement": "Accumulated rel, Time (min) 360", "setting": "[1]; Example 1 sachet formulation, 360 min", "result": 99.0, "unit": "%"}, {"measurement": "Accumulated rel, Time (min) 420", "setting": "[1]; Example 1 sachet formulation, 420 min", "result": 99.5, "unit": "%"}, {"measurement": "Accumulated rel, Time (min) 15", "setting": "[1]; Example 2 tablet formulation, 15 min", "result": 0.0, "unit": "%"}, {"measurement": "Accumulated rel, Time (min) 30", "setting": "[1]; Example 2 tablet formulation, 30 min", "result": 0.0, "unit": "%"}, {"measurement": "Accumulated rel, Time (min) 60", "setting": "[1]; Example 2 tablet formulation, 60 min", "result": 0.0, "unit": "%"}, {"measurement": "Accumulated rel, Time (min) 120", "setting": "[1]; Example 2 tablet formulation, 120 min", "result": 0.0, "unit": "%"}, {"measurement": "Accumulated rel, Time (min) 180", "setting": "[1]; Example 2 tablet formulation, 180 min", "result": 0.0, "unit": "%"}, {"measurement": "Accumulated rel, Time (min) 240", "setting": "[1]; Example 2 tablet formulation, 240 min", "result": 0.0, "unit": "%"}, {"measurement": "Accumulated rel, Time (min) 300", "setting": "[1]; Example 2 tablet formulation, 300 min", "result": 15.0, "unit": "%"}, {"measurement": "Accumulated rel, Time (min) 330", "setting": "[1]; Example 2 tablet formulation, 330 min", "result": 89.3, "unit": "%"}, {"measurement": "Accumulated rel, Time (min) 360", "setting": "[1]; Example 2 tablet formulation, 360 min", "result": 99.5, "unit": "%"}, {"measurement": "Accumulated rel, Time (min) 420", "setting": "[1]; Example 2 tablet formulation, 420 min", "result": 99.7, "unit": "%"}, {"measurement": "Accumulated release, Time (min) 15", "setting": "[1]; Example 3 tablet formulation, 15 min", "result": 0.0, "unit": "%"}, {"measurement": "Accumulated release, Time (min) 30", "setting": "[1]; Example 3 tablet formulation, 30 min", "result": 0.0, "unit": "%"}, {"measurement": "Accumulated release, Time (min) 60", "setting": "[1]; Example 3 tablet formulation, 60 min", "result": 0.0, "unit": "%"}, {"measurement": "Accumulated release, Time (min) 120", "setting": "[1]; Example 3 tablet formulation, 120 min", "result": 0.0, "unit": "%"}, {"measurement": "Accumulated release, Time (min) 180", "setting": "[1]; Example 3 tablet formulation, 180 min", "result": 0.0, "unit": "%"}, {"measurement": "Accumulated release, Time (min) 240", "setting": "[1]; Example 3 tablet formulation, 240 min", "result": 0.0, "unit": "%"}, {"measurement": "Accumulated release, Time (min) 300", "setting": "[1]; Example 3 tablet formulation, 300 min", "result": 5.3, "unit": "%"}, {"measurement": "Accumulated release, Time (min) 330", "setting": "[1]; Example 3 tablet formulation, 330 min", "result": 85.6, "unit": "%"}, {"measurement": "Accumulated release, Time (min) 360", "setting": "[1]; Example 3 tablet formulation, 360 min", "result": 99.0, "unit": "%"}, {"measurement": "Accumulated release, Time (min) 420", "setting": "[1]; Example 3 tablet formulation, 420 min", "result": 99.2, "unit": "%"}, {"measurement": "time for releasing the complete amount of caffeine after release starts", "setting": "[2]; Example 5 ethylcellulose-coated tablets, phosphate buffer pH 6.8, 5 out of six tested tablets", "result": "≤ 2", "unit": "h"}, {"measurement": "start of caffeine release after melatonin release", "setting": "[2]; Example 5 test preparation: coated gelatine capsule with 6 caffeine tablets and 0.5 mg melatonin, stated from the properties of the tablets", "result": "approximately 420 min"}]}]}
